Each structure is given as a SMILES string.

For series [1] the following is noted: oral, cited from earlier work.
A short description of series [2]: BPR: parent drug in brain and plasma of rats. As to conditions: rat, % change vs. non-deuterated material. The series is classed as in vivo. On the procedure: (§1) The key PK parameters (presented as a % change vs. non-deuterated materials) are presented in Table 3 to include half-life (T1/2), area under the curve (AUC), bioavailability (F) and blood-to-plasma ration (BPR). Pharmacokinetics of the deuterated tryptamines was studied in rats. In a typical experiment, run as a cassette dosing, two groups of 5 Wistar female rats (200-250 g) with surgically inserted jugular vein catheter (Charles River, Andover, MA) were fasted for 12 h and then administered 5 mg/kg of the deuterated and 5 mg/kg of the related non-deuterated analog, by oral gavage or via a catheter for each group. At time points 0, 15, 30, 60 min, and 2, 4, 8, and 24 h, the resulting plasma was analyzed for the parent molecule using LC/MS spectroscopy. Two separate groups of 5 animals were used for determining blood-to-plasma ratio (BPR). Each group was sacrificed at time points 15 and 30 min, respectively, and the concentration of the parent drug was determined in the brain and plasma by LC/MS spectroscopy.

In a further series the test system is rat liver microsomes. Description: Metabolic stability in rat liver microsomes (RLM). As to conditions: for RLM (metabolized or not): last assay time point 120 min.
Series [3] is described as follows: PK study in rats, cassette dosing of deuterated and non-deuterated analog. It is filed as in vivo. As to conditions: rat; 5 mg/kg; oral gavage or via catheter; % change vs. non-deuterated material. On the procedure: as §1
The target in a further series is T1, hrMAO-A (Homo sapiens, UniProt P21397).
T1 construct: purchased XenoTech Lot #8213001
T1 sequence (P21397 1-527): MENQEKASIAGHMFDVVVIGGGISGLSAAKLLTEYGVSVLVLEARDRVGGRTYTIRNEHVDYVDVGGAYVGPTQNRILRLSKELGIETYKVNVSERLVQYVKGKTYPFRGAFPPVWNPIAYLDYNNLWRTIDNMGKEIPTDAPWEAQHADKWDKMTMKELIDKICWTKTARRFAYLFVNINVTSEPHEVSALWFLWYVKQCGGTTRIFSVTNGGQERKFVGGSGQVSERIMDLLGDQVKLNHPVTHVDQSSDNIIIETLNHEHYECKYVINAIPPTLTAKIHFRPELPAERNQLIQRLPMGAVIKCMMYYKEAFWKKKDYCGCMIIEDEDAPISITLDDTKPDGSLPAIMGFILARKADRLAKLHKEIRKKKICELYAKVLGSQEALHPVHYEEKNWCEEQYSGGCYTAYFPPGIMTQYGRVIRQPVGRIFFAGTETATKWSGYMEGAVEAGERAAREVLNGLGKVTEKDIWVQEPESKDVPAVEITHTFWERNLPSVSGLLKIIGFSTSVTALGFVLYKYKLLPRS
Description: Metabolic stability in the presence of hrMAO-A. It is filed as in vitro ADME. As to conditions: MAO-A; for MAO (metabolized or not): last assay time point 120 min. How it is done: The reaction mixture was prepared as described below. The co-dosed TAs were added into the reaction mixture at a final concentration of 1 microM each. The positive control, kynuramine (25 microM), was run simultaneously with the TAs in a separate reaction. The reaction mixture (without TAs or kynuramine) was equilibrated in a shaking water bath at 37° C. for 5 minutes. The reaction was initiated by the addition of the TAs or kynuramine, and the mixture was incubated in a shaking water bath at 37° C. Aliquots (100 microL) of the TA reaction mixture were withdrawn at 0, 5, 10, 20, 30, 60, and 120 minutes. Aliquots (100 microL) of the positive control reaction mixture were withdrawn at 0 and 30 minutes. TA and kynuramine samples were immediately combined with 100 microL of ice-cold 100% MeCN containing 0.1% formic acid and IS to terminate the reaction. The samples were then mixed and centrifuged to precipitate proteins. All TA samples were assayed by LC-HRAMS. The PARR (analyte to IS) at each time point was compared to the PARR at time 0 to determine the percent remaining at each time point. Reaction composition: hrMAO 0.02 mg/mL; Potassium Phosphate, pH 7.4 100 mM; Magnesium Chloride 5 mM; Test Articles (each) 1 microM.

With `COc1cc(CCNCc2ccccc2OC)c(OC)cc1Cl` [2C—C—NBOMe, 2-(4-Chloro-2,5-dimethoxyphenyl)-N-[(2-methoxyphenyl)methyl]ethan-1-amine], the “very strong psychedelic doses” value in series [1] was 500 to 700 µg. Moreover, the orally active dose in series [1] (doses as low as) is no less than 25 µg.
Turning to `[2H]C([2H])(Cc1c[nH]c2ccc(OC)cc12)N(C)C` [5-MeO-DMT-α,α-d2], in series [2], the “Deuterium Kinetic Isotope Effect (% change), BPR, 15 min” value is 120% and the “Deuterium Kinetic Isotope Effect (% change), BPR, 30 min” value amounted to 180%. Moreover, the “RLM, % (half-life as % vs. the related nondeuterated compound)” value in the series on rat liver microsomes (RLM, values in square brackets are within 10% difference (assay's accuracy), no deuteration effect) turned out to be 185%. For the same molecule, in the series on rat liver microsomes (rat liver microsomes, 0 to 60 min, disappearance of parent peak), the “collective kinetic deuterium isotope effect (reaction rate decrease for deuterated vs. non-deuterated molecule)” value is reported as 150-200%. Moreover, in series [3], the “Deuterium Kinetic Isotope Effect (% change), AUC” value came to 60% and the “Deuterium Kinetic Isotope Effect (% change), T1/2” value is reported as 30%. The “MAO, % (half-life as % vs. the related nondeuterated compound)” value on hrMAO-A (values in square brackets are within 10% difference (assay's accuracy), no deuteration effect) is 227%.
Take `[2H]C([2H])(Cc1c[nH]c2cccc(O)c12)N(C)C` [PI-α,α-d2]: in series [2], the “Deuterium Kinetic Isotope Effect (% change), BPR, 15 min” value stood at 100% and the “Deuterium Kinetic Isotope Effect (% change), BPR, 30 min” value stood at 150%. In series [3], the “Deuterium Kinetic Isotope Effect (% change), AUC” value was found to be 75% and the “Deuterium Kinetic Isotope Effect (% change), T1/2” value was 50%.
For the molecule `CCN(C)CCc1c[nH]c2ccc(OC)cc12` [reference compound], the “RLM (metabolized or not)” value in the series on rat liver microsomes (RLM) was “R”. Besides, the “MAO (metabolized or not)” value on hrMAO-A is “R”.
Regarding `CCN(C)CCc1c[nH]c2ccc(O)cc12` [reference compound], the “RLM (metabolized or not)” value in the series on rat liver microsomes (RLM) is given as “R”. For the same molecule, the “MAO (metabolized or not)” value on hrMAO-A was “R”.
For the molecule `CCN(C)CCc1c[nH]c2cccc(OC)c12` [reference compound], in the series with rat liver microsomes (RLM), the “RLM (metabolized or not)” value is “R”. Also, the “MAO (metabolized or not)” value on hrMAO-A was “R”.
With `CN(C)CCc1c[nH]c2ccc(O)cc12` [reference compound], the “RLM (metabolized or not)” value in the series on rat liver microsomes (RLM) is listed as “R”. In addition, the “MAO (metabolized or not)” value at hrMAO-A is “R”.
For `COc1cccc2[nH]cc(CCN(C)C)c12` [reference compound], the “RLM (metabolized or not)” value in the series on rat liver microsomes (RLM) is given as “R”. For the same molecule, the “MAO (metabolized or not)” value at hrMAO-A is reported as “R”.
Take `CNCCc1c[nH]c2ccccc12` [reference compound]: the “RLM (metabolized or not)” value in the series on rat liver microsomes (RLM) is listed as “R”. For the same molecule, the “MAO (metabolized or not)” value at hrMAO-A is given as “R”.

(Values after patent US12240813B2, “Deuterated tryptamine derivatives and methods of use” (priority 2020, dated 2025).)
